For 21 compounds, IC50 results are on record in patent US11535615B2, “Heterocyclic compounds as immunomodulators” (Incyte Corporation, priority 2015, dated 2022).

Bounds are passed on as bounds.

Sequence of PD-1/PD-L1 protein/protein interaction (Q9NZQ7 19-238): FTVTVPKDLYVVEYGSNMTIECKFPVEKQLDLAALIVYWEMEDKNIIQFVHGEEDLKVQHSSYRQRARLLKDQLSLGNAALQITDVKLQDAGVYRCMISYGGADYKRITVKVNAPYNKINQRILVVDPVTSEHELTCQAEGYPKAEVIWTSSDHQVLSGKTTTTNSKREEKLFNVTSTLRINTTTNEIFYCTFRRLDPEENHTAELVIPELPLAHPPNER

The assay concerns the target PD-1/PD-L1 protein/protein interaction (Homo sapiens (Human), UniProt Q9NZQ7). Nature of the assay: PD-1/PD-L1 Homogeneous Time-Resolved Fluorescence (HTRF) Binding Assay. Conditions: recombinant human PD-L1 (19-238) His-tag and human PD-1 (25-167) Fc tag; PBS pH 7.4. The method, then:
Example A. PD-1/PD-L1 Homogeneous Time-Resolved Fluorescence (HTRF) Binding Assay
The assays were conducted in a standard black 384-well polystyrene plate with a final volume of 20 μL. Inhibitors were first serially diluted in DMSO and then added to the plate wells before the addition of other reaction components. The final concentration of DMSO in the assay was 1%. The assays were carried out at […] in the PBS buffer (pH 7.4) with 0.05% Tween-20 and 0.1% BSA. Recombinant human PD-L1 protein (19-238) with a His-tag at the C-terminus was purchased from AcroBiosystems (PD1-H5229). Recombinant human PD-1 protein (25-167) with Fc tag at the C-terminus was also purchased from AcroBiosystems (PD1-H5257). PD-L1 and PD-1 proteins were diluted in the assay buffer and 10 μL was added to the plate well. Plates were centrifuged and proteins were preincubated with inhibitors for 40 minutes. The incubation was followed by the addition of 10 μL of HTRF detection buffer supplemented with Europium cryptate-labeled anti-human IgG (PerkinElmer-AD0212) specific for Fc and anti-His antibody conjugated to SureLight®-Allophycocyanin (APC, PerkinElmer-AD0059H). After centrifugation, the plate was incubated at 25° C. for 60 min. before reading on a PHERAstar FS plate reader (665 nm/620 nm ratio). Final concentrations in the assay were […] PD1, 10 nM PD-L1, 1 nM europium anti-human IgG and 20 nM anti-His-Allophycocyanin. IC50 determination was performed by fitting the curve of percent control activity versus the log of the inhibitor concentration using the GraphPad Prism 5.0 software.
In the case of `Cc1c(Nc2cccc3cc(CNCCO)cnc23)cccc1-c1ccccc1` [Example 1, 2-[({8-[(2-methylbiphenyl-3-yl)amino]quinolin-3-yl}methyl)amino]ethanol], the IC50 was in the range of 10 to 100 nM. With `Cc1c(Nc2nccc3cc(CNCCO)cnc23)cccc1-c1ccccc1` [Example 2, 2-[({8-[(2-methylbiphenyl-3-yl)amino]-1,7-naphthyridin-3-yl}methyl)amino]ethanol], the IC50 was at most 10 nM. As to `Cc1c(Nc2nccc3cc(CN4CCCCC4C(=O)O)cnc23)cccc1-c1ccccc1` (stereo not drawn) [Example 3, 1-({8-[(2-methylbiphenyl-3-yl)amino]-1,7-naphthyridin-3-yl}methyl)piperidine-2-carboxylic Acid], the IC50 lay within 10 to 100 nM. In the case of `Cc1c(Nc2ncnc3cc(CN4CCCCC4C(=O)O)cnc23)cccc1-c1ccccc1` (stereo not drawn) [Example 4, 1-({4-[(2-methylbiphenyl-3-yl)amino]pyrido[3,2-d]pyrimidin-7-yl}methyl)piperidine-2-carboxylic Acid], the IC50 was 10 to 100 nM. Regarding `Cc1c(Nc2nccc3c(CN4CCCCC4C(=O)O)ccnc23)cccc1-c1ccccc1` (stereo not drawn) [Example 5, 1-({8-[(2-methylbiphenyl-3-yl)amino]-1,7-naphthyridin-4-yl}methyl)piperidine-2-carboxylic Acid], the IC50 was at most 10 nM. With `Cc1c(Nc2nccc3c(CNCCO)ccnc23)cccc1-c1ccccc1` [Example 6, 2-[({8-[(2-methylbiphenyl-3-yl)amino]-1,7-naphthyridin-4-yl}methyl)amino]ethanol], the IC50 was in the range of 10 to 100 nM. For `Cc1c(Nc2cccc3c(CNCCO)ccnc23)cccc1-c1ccccc1` [Example 7, 2-[({8-[(2-methylbiphenyl-3-yl)amino]quinolin-4-yl}methyl)amino]ethanol], the IC50 lay in the range of 10 to 100 nM. Take `Cc1c(Nc2cccc3c(CN4CCCCC4C(=O)O)ccnc23)cccc1-c1ccccc1` (stereo not drawn) [Example 8, 1-({8-[(2-methylbiphenyl-3-yl)amino]quinolin-4-yl}methyl)piperidine-2-carboxylic Acid]: the IC50 fell in the range of 10 to 100 nM. For `Cc1c(Nc2nccc3c(Cl)c(CNCCO)cnc23)cccc1-c1ccccc1` [Example 9, 2-[({4-chloro-8-[(2-methylbiphenyl-3-yl)amino]-1,7-naphthyridin-3-yl}methyl)amino]ethanol], the IC50 was in the range of 10 to 100 nM. Take `COc1c(CNCCO)cnc2c(Nc3cccc(-c4ccccc4)c3C)nccc12` [Example 10, 2-[({4-methoxy-8-[(2-methylbiphenyl-3-yl)amino]-1,7-naphthyridin-3-yl}methyl)amino]ethanol]: the IC50 is at most 10 nM. Consider `Cc1c(Nc2nccc3c(Cl)c(CN4CCCCC4C(=O)O)cnc23)cccc1-c1ccccc1` (stereo not drawn) [Example 11, 1-({4-chloro-8-[(2-methylbiphenyl-3-yl)amino]-1,7-naphthyridin-3-yl}methyl)piperidine-2-carboxylic Acid], for which the IC50 lay in the range of 10 to 100 nM. As for `Cc1c(Nc2nccc3c(CNCCO)ccnc23)cccc1-c1ccc2c(c1)OCCO2` [Example 12, 2-{[(8-{[3-(2,3-dihydro-1,4-benzodioxin-6-yl)-2-methylphenyl]amino}-1,7-naphthyridin-4-yl)methyl]amino}ethanol], the IC50 was at most 10 nM.

Regarding `Cc1c(Nc2nccc3c(CN4CCCCC4C(=O)O)ccnc23)cccc1-c1ccc2c(c1)OCCO2` (stereo not drawn) [Example 13, 1-[(8-{[3-(2,3-dihydro-1,4-benzodioxin-6-yl)-2-methylphenyl]amino}-1,7-naphthyridin-4-yl)methyl]piperidine-2-carboxylic Acid], the IC50 lay in the range of 10 to 100 nM. With `Cc1c(Nc2nccc3nc(CNCCO)cnc23)cccc1-c1ccccc1` [Example 14, 2-[({5-[(2-methylbiphenyl-3-yl)amino]pyrido[3,4-b]pyrazin-2-yl}methyl)amino]ethanol], the 50% inhibitory concentration (IC50) was at most 10 nM. In the case of `Cc1c(Nc2nccc3nc(CN4CCCC[C@H]4C(=O)O)cnc23)cccc1-c1ccccc1` [Example 15, (2S)-1-({5-[(2-methylbiphenyl-3-yl)amino]pyrido[3,4-b]pyrazin-2-yl}methyl)piperidine-2-carboxylic Acid], the IC50 was in the range of 10 to 100 nM. To `N#Cc1c(Nc2nccc3cc(CNCCO)cnc23)cccc1-c1ccc2c(c1)OCCO2` [Example 16, 2-(2,3-dihydro-1,4-benzodioxin-6-yl)-6-[(3-{[(2-hydroxyethyl)amino]methyl}-1,7-naphthyridin-8-yl)amino]benzonitrile] belongs at most 10 nM; to `Cc1c(Nc2nccc3cc(CNCCO)cnc23)cccc1-c1ccc2c(c1)OCCO2` [Example 17, 2-{[(8-{[3-(2,3-dihydro-1,4-benzodioxin-6-yl)-2-methylphenyl]amino}-1,7-naphthyridin-3-yl)methyl]amino}ethanol], at most 10 nM; to `Cc1c(Nc2nccc3cc(CNCCO)cnc23)cccc1C1=CCCCC1` [Example 18, 2-[({8-[(3-cyclohex-1-en-1-yl-2-methylphenyl)amino]-1,7-naphthyridin-3-yl}methyl)amino]ethanol], at most 10 nM.

As to `N#Cc1c(Nc2nccc3cc(CNCCO)cnc23)cccc1-c1ccccc1` [Example 19, 3-[(3-{[(2-hydroxyethyl)amino]methyl}-1,7-naphthyridin-8-yl)amino]biphenyl-2-carbonitrile], the IC50 is at most 10 nM. Take `N#Cc1c(Nc2nccc3cc(CNCCO)cnc23)cccc1C1=CCCCC1` [Example 20, 2-cyclohex-1-en-1-yl-6-[(3-{[(2-hydroxyethyl)amino]methyl}-1,7-naphthyridin-8-yl)amino]benzonitrile]: the IC50 is at most 10 nM.

In the case of `N#Cc1c(Nc2nccc3cc(CNCCO)cnc23)cccc1C1CCCCC1` [Example 21, 2-cyclohexyl-6-[(3-{[(2-hydroxyethyl)amino]methyl}-1,7-naphthyridin-8-yl)amino]benzonitrile], the IC50 was 10 to 100 nM.
